Experiments:
[1] = tested on: B dolosa; assay: Minimal bactericidal concentration (MBC) assay; assay type: cell-based, Burkholderia dolosa
Protocol: (§1) Minimal bactericidal concentration (MBC) assay—Overnight-grown MIC plates, prepared as described in Example 16, were evaluated to determine the MIC. Culture was then sampled from wells at and near the MIC using sterile inoculating loops, and transferred to fresh MHA plates to determine if viable bacteria remained. […] The MBC was determined as the well in the MIC plate which contained the lowest concentration of silver yielding no bacterial growth on the MHA plate.

[2] = tested on: Ser. marcescens; assay: Minimal bactericidal concentration (MBC) assay; assay type: cell-based, Serratia marcescens
Protocol: as §1

[3] = tested on: E. coli; assay: Minimal bactericidal concentration (MBC) assay; assay type: cell-based, Escherichia coli
Protocol: as §1

[4] = tested on: Burkholderia dolosa; assay: MIC assay; assay type: cell-based
[5] = tested on: B. multivorans; assay: Minimal bactericidal concentration (MBC) assay; assay type: cell-based, Burkholderia multivorans
Protocol: as §1

[6] = tested on: Serratia marcescens; assay: MIC assay; assay type: cell-based
[7] = tested on: Citrobacter freundii; assay: MIC assay; assay type: cell-based; details: C. freundii isolate NP410
[8] = tested on: C. freundii; assay: Minimal bactericidal concentration (MBC) assay; assay type: cell-based, Citrobacter freundii; details: C. freundii isolate NP410
Protocol: as §1

[9] = tested on: Staph epidermidis; assay: Minimal bactericidal concentration (MBC) assay; assay type: cell-based, Staphylococcus epidermidis
Protocol: as §1

[10] = tested on: K. pneumoniae; assay: Minimal bactericidal concentration (MBC) assay; assay type: cell-based, Klebsiella pneumoniae
Protocol: as §1

[11] = tested on: Proteus mirabilis; assay: MIC assay; assay type: cell-based; details: Prot. mirabilis isolate NP405
[12] = tested on: Streptococcus pneumoniae; assay: MIC assay; assay type: cell-based; details: solutions in 0.1 M lactate buffer pH 4.0
[13] = tested on: Prot. mirabilis; assay: Minimal bactericidal concentration (MBC) assay; assay type: cell-based, Proteus mirabilis; details: Prot. mirabilis isolate NP405
Protocol: as §1

[14] = tested on: Klebsiella pneumoniae; assay: MIC assay; assay type: cell-based
[15] = tested on: Ps. aeruginosa; assay: Minimal bactericidal concentration (MBC) assay; assay type: cell-based, Pseudomonas aeruginosa
Protocol: as §1

[16] = tested on: Staphylococcus epidermidis; assay: MIC assay; assay type: cell-based
[17] = tested on: Escherichia coli; assay: MIC assay; assay type: cell-based
[18] = tested on: Staphylococcus aureus; assay: MIC assay; assay type: cell-based; details: for NP101 MIC: Staph aureus isolate NP101; for NP102 MIC: Staph aureus isolate NP102; for NP103 MIC: Staph aureus isolate NP103
[19] = tested on: Strep. pyogenes; assay: Minimal bactericidal concentration (MBC) assay; assay type: cell-based, Streptococcus pyogenes
Protocol: as §1

[20] = tested on: Burkholderia multivorans; assay: MIC assay; assay type: cell-based
[21] = tested on: Pseudomonas aeruginosa; assay: MIC assay; assay type: cell-based; details: for NP212 MIC: P. aeruginosa isolate NP212; for NP213 MIC: P. aeruginosa isolate NP213; for NP214 MIC: P. aeruginosa isolate NP 214
[22] = tested on: Streptococcus pyogenes; assay: MIC assay; assay type: cell-based
[23] = tested on: Enterobacter cloacae; assay: MIC assay; assay type: cell-based; details: Enterobacter cloacae
[24] = Ser. marcescens isolate NP402 (first listing)
[25] = Ser. marcescens isolate NP402 (second listing)
[26] = Ser. marcescens isolate NP408 (first listing)
[27] = Ser. marcescens isolate NP408 (second listing)
[28] = Staph epidermidis ATCC type strain 12228
[29] = Staph epidermidis isolate NP136
[30] = K. pneumoniae isolate NP403 (first listing)
[31] = K. pneumoniae isolate NP403 (second listing)
[32] = Ps. aeruginosa ATCC type strain 27317
[33] = formulation type Water/Lecithin

O=[N+]([O-])[O-].[Ag+] [AgNO3, silver nitrate]
MBC ([1]; B dolosa isolate A3): 3 parts silver per million | MBC ([1]; B dolosa isolate A4): 2 parts silver per million | MBC [2, 24]: 6 parts silver per million | MBC [2, 25]: 6 parts silver per million | MBC [2, 26]: 6 parts silver per million | MBC [2, 27]: 11 parts silver per million | MBC ([3]; E. coli ATCC type strain 8739): 0.4 parts silver per million | MBC ([3]; E. coli ATCC type strain 43745): 0.4 parts silver per million | MBC ([3]; E. coli isolate NP412): 1 parts silver per million | MIC ([4]; B dolosa isolate A3): 2 parts silver per million | MIC ([4]; B dolosa isolate A4): 2 parts silver per million | MBC ([5]; B. multivorans isolate B1): 3 parts silver per million | MBC ([5]; B. multivorans isolate B2): 3 parts silver per million | MBC ([5]; B. multivorans isolate B4): 3 parts silver per million | MIC [6, 24]: 6 parts silver per million | MIC [6, 25]: 6 parts silver per million | MIC [6, 26]: 6 parts silver per million | MIC [6, 27]: 11 parts silver per million | MIC ([6]; Serratia marcescens, aerobic conditions (+)): 6 µg/mL | MIC ([6]; Serratia marcescens, anaerobic conditions (Aerobic −)): 13 µg/mL | MIC [7]: 3 parts silver per million | MBC [8]: 3 parts silver per million | MBC [9, 28]: 3 parts silver per million | MBC [9, 29]: 3 parts silver per million | MBC ([10]; K. pneumoniae isolate NP401): 3 parts silver per million | MBC [10, 30]: 6 parts silver per million | MBC [10, 31]: 3 parts silver per million | MBC ([10]; K. pneumoniae isolate NP406): 1 parts silver per million | MIC [11]: 6 parts silver per million | MIC ([12]; S. pneumo (clin 314)): 11 mg/L | MIC ([12]; S. pneumo (clin 315)): 21 mg/L | MBC [13]: 13 parts silver per million | MIC ([14]; K. pneumoniae isolate NP401): 3 parts silver per million | MIC [14, 30]: 6 parts silver per million | MIC [14, 31]: 6 parts silver per million | MIC ([14]; K. pneumoniae isolate NP406): 1 parts silver per million | MIC ([14]; Klebsiella pneumoniae, aerobic conditions (+)): 3 µg/mL | MIC ([14]; Klebsiella pneumoniae, anaerobic conditions (Aerobic −)): 3 µg/mL | MBC [15, 32]: 3 parts silver per million | MBC ([15]; Ps. aeruginosa isolate NP201): 3 parts silver per million | MBC ([15]; Ps. aeruginosa isolate NP204): 3 parts silver per million | MBC ([15]; Ps. aeruginosa isolate NP206): 1 parts silver per million | MIC ([16]; S. epiderm (ATCC), solutions in 0.1 M lactate buffer pH 4.0): 3 µg/mL | MIC [16, 28]: 3 parts silver per million | MIC [16, 29]: 3 parts silver per million | MIC ([17]; E. coli (ATCC), solutions in 0.1 M lactate buffer pH 4.0): 3 µg/mL | MIC ([17]; E. coli ATCC type strain 8739): 0.4 parts silver per million | MIC ([17]; E. coli ATCC type strain 43745): 1 parts silver per million | MIC ([17]; E. coli isolate NP412): 1 parts silver per million | MIC ([18]; S. aureus (ATCC), solutions in 0.1 M lactate buffer pH 4.0): 11 µg/mL | MIC ([18]; S. aureus (clin.), solutions in 0.1 M lactate buffer pH 4.0): 5 µg/mL | NP101 MIC ([18]; formulation type Lactate): 9 ppm | NP101 MIC [18, 33]: 11 ppm | NP101 MIC ([18]; formulation type Water/PVA): 11 ppm | NP102 MIC ([18]; formulation type Lactate): 9 ppm | NP102 MIC [18, 33]: 11 ppm | NP102 MIC ([18]; formulation type Water/PVA): 11 ppm | NP103 MIC ([18]; formulation type Lactate): 9 ppm | NP103 MIC [18, 33]: 11 ppm | NP103 MIC ([18]; formulation type Water/PVA): 11 ppm | MIC ([18]; Staph. aureus ATCC type strain 6538): 6 parts silver per million | MIC ([18]; Staph. aureus ATCC type strain 700699): 3 parts silver per million | MIC ([18]; Staph. aureus isolate NP101): 6 parts silver per million | MIC ([18]; Staph. aureus isolate NP102): 6 parts silver per million | MIC ([18]; Staph. aureus isolate NP103): 6 parts silver per million | MBC ([19]; Strep. pyogenes isolate NP303): 10 parts silver per million | MBC ([19]; Strep. pyogenes isolate NP304): 21 parts silver per million | MBC ([19]; Strep. pyogenes isolate NP306): 21 parts silver per million | MIC ([20]; B. multivorans isolate B1): 3 parts silver per million | MIC ([20]; B. multivorans isolate B2): 3 parts silver per million | MIC ([20]; B. multivorans isolate B4): 2 parts silver per million | MIC ([21]; P. aerug (ATCC), solutions in 0.1 M lactate buffer pH 4.0): 3 µg/mL | MIC ([21]; P. aerug. (clin.), solutions in 0.1 M lactate buffer pH 4.0): 3 µg/mL | NP212 MIC ([21]; formulation type Lactate): 2 ppm | NP212 MIC [21, 33]: 3 ppm | NP212 MIC ([21]; formulation type Water/PVA): 3 ppm | NP213 MIC ([21]; formulation type Lactate): 1 ppm | NP213 MIC [21, 33]: 1 ppm | NP213 MIC ([21]; formulation type Water/PVA): 1 ppm | NP214 MIC ([21]; formulation type Lactate): 1 ppm | NP214 MIC [21, 33]: 1 ppm | NP214 MIC ([21]; formulation type Water/PVA): 3 ppm | MIC ([21]; Ps. aeruginosa ATCC type strain 9027): 1 parts silver per million | MIC [21, 32]: 2 parts silver per million | MIC ([21]; Ps. aeruginosa isolate NP201): 1 parts silver per million | MIC ([21]; Ps. aeruginosa isolate NP204): 1 parts silver per million | MIC ([21]; Ps. aeruginosa isolate NP206): 1 parts silver per million | MIC ([22]; S. pyog (clin. 303), solutions in 0.1 M lactate buffer pH 4.0): 3 µg/mL | MIC ([22]; S. pyog (clin. 304), solutions in 0.1 M lactate buffer pH 4.0): 5 µg/mL | MIC ([22]; Strep. pyogenes isolate NP303): 3 parts silver per million | MIC ([22]; Strep. pyogenes isolate NP304): 6 parts silver per million | MIC ([22]; Strep. pyogenes isolate NP306): 6 parts silver per million | MIC ([23]; aerobic conditions (+)): 13 mg/L | MIC ([23]; anaerobic conditions (Aerobic −)): 25 mg/L

— US20080050452A1, “METAL-CONTAINING FORMULATIONS AND METHODS OF USE” (priority 2006, published 2008)
